# Source: ChEMBL document CHEMBL6120968, “Discovery of Thiadiazoleamide Derivatives as Potent, Selective, and Orally Available Antagonists Disrupting Androgen Receptor Homodimer” (J Med Chem, 2024)
# Calls of active or inactive are those of the source. The rule behind the calls is not given here.
# Experiments:
# Androgen receptor = biological target: T1, Androgen receptor (Homo sapiens, UniProt P10275); test: Antagonist activity at Androgen receptor in human LNCaP cells transfected with ARR2PB-eGFP incubated for 3 days by synergy H1 microplate reader analysis; type: cell-based
# T1 sequence (P10275 whole entry): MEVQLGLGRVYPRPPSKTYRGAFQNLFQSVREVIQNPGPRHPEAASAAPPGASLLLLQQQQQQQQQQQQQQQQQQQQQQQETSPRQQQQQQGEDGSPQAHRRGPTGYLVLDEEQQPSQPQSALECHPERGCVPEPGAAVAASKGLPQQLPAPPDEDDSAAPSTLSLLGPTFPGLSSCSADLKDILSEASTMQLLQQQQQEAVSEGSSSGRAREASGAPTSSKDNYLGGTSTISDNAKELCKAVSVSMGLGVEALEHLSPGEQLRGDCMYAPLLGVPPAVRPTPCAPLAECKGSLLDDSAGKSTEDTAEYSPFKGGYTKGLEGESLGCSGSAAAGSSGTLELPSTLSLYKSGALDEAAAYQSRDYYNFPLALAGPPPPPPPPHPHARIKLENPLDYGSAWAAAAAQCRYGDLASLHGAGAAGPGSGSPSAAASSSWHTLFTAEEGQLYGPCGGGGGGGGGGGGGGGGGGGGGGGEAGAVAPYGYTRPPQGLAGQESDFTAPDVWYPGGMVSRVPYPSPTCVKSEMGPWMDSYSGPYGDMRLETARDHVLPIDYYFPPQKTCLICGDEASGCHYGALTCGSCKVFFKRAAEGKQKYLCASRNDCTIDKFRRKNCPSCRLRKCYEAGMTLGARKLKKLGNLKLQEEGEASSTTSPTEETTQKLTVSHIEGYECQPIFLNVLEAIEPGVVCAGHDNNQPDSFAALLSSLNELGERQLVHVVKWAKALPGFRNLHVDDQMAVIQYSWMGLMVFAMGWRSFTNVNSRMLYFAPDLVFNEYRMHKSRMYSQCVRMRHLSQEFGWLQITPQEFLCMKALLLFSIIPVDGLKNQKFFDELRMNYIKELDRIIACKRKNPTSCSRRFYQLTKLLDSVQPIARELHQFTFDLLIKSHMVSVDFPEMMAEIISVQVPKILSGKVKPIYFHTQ
# hERG (KCNH2) = hERG (KCNH2) (Homo sapiens, UniProt Q12809); test: (§1) Inhibition of hERG at 10 uM relative to control; type: toxicity
# hERG (KCNH2), sequence (Q12809 whole entry): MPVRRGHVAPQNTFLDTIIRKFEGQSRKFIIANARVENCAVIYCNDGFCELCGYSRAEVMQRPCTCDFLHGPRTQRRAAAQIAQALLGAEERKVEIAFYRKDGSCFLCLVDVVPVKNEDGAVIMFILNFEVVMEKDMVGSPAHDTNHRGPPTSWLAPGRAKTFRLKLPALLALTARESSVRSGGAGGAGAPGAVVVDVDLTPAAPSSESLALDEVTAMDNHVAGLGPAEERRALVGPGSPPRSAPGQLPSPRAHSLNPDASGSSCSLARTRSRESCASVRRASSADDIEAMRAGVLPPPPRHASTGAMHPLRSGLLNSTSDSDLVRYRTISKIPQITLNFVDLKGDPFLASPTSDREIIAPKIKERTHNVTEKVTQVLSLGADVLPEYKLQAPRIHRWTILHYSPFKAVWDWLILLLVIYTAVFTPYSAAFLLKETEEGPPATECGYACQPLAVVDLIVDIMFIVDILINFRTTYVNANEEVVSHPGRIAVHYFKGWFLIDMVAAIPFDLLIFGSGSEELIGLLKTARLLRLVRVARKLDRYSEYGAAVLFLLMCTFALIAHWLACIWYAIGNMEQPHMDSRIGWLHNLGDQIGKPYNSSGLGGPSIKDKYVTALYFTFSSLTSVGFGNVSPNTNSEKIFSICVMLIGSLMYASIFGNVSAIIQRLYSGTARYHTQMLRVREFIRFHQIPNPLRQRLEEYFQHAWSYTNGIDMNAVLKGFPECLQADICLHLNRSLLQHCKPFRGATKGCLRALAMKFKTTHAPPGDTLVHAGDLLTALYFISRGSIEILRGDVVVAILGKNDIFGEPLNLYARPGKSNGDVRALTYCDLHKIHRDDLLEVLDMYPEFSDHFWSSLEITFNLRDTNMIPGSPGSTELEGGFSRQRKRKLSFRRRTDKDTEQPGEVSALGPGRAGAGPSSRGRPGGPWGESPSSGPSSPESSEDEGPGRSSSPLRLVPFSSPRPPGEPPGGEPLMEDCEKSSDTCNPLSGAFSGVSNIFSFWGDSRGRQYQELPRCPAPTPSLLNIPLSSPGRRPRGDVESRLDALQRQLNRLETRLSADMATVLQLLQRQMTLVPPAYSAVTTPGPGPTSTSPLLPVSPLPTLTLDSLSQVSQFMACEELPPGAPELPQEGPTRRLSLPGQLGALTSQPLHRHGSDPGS
# NIH3T3 = test: Antiproliferative activity against mouse 3T3 cells assessed as reduction in cell viability incubated for 3 days by MTT assay; type: toxicity, cell-based; details: nih3t3, 72 h, time 3 day
# LNCaP [1] = test: Downregulation of FKBP5 level in DHT-induced human LNCaP cells at 0.1 to 1 uM incubated for 24 hrs by Western blot analysis; type: functional, cell-based; details: dose 0.1-1 µM
# LNCaP [2] = test: Antiproliferative activity against human LNCaP cells assessed as inhibition of cell proliferation incubated for 3 days by MTT assay; type: functional, cell-based; details: 72 h
# [3] = Antagonist activity at Androgen receptor F877L/T878A double mutant in human HEK293T cells cotransfected with MMTV-luc and renilla plasmid incubated for 24 hrs by Dual luciferase assay; type: cell-based; details: HEK-293T
# LNCaP [4] = test: Antiproliferative activity against human LNCaP cells assessed as survival rate incubated for 3 days by MTT assay; details: 72 h
# [5] = biological target: Voltage-gated inwardly rectifying potassium channel KCNH2 (Homo sapiens, UniProt Q12809); test: as §1; type: toxicity; details: 10 µM
# Voltage-gated inwardly rectifying potassium channel KCNH2, sequence (Q12809 whole entry): as above
# LNCaP C4-2 = test: Antiproliferative activity against human LNCaP C4-2 cells assessed as survival rate incubated for 3 days by MTT assay; details: LNCaP C4-2, 72 h
# LNCaP C4-2B = test: Antiproliferative activity against human LNCaP C4-2B cells assessed as survival rate incubated for 3 days by MTT assay; details: 72 h
# [6] = Downregulation of PSA level in human LNCaP cells transfected with ARR2PB-eGFP incubated for 24 hrs by Western blot analysis
Compound,IC50 (Androgen receptor) [µM],further results
Cc1oc(-c2cccc(C(F)(F)F)c2)cc1C(=O)Nc1nc(CC(C)N(C)C)ns1 (centres undefined),0.28,
Cc1oc(-c2cccc(C(F)(F)F)c2)cc1C(=O)Nc1nc(CC(C)N2CCCC2)ns1 (centres undefined),0.024,inhibition at 10 µM (hERG (KCNH2)): 93.5%
Cc1oc(-c2cccc(C(F)(F)F)c2)cc1C(=O)Nc1nc(CN2CCCC2)ns1,0.061,
Cc1oc(-c2cccc(C(F)(F)F)c2)cc1C(=O)Nc1nc(CN2CCCC(O)C2)ns1 (centres undefined),0.15,
Cc1oc(-c2ccc(Cl)c(C(F)(F)F)c2)cc1C(=O)Nc1nc(CN2CCOCC2)ns1,0.035,inhibition at 10 µM (hERG (KCNH2)): 51.3%
Cc1oc(-c2ccc(F)c(C(F)(F)F)c2)cc1C(=O)Nc1nc(CN2CCOCC2)ns1,0.026,
Cc1oc(-c2cc(F)cc(C(F)(F)F)c2)cc1C(=O)Nc1nc(CN2CCOCC2)ns1,,inhibition at 10 µM (hERG (KCNH2)): 16.4%; Activity (NIH3T3): Non-toxic
Cc1oc(-c2cccc(C(F)(F)F)c2)cc1C(=O)Nc1nc(CN2CCC(CO)CC2)ns1,0.16,Activity (LNCaP [1]): Active
Cc1oc(-c2cccc(OC(F)(F)F)c2)cc1C(=O)Nc1nc(CN2CCOCC2)ns1,0.019,inhibition at 10 µM (hERG (KCNH2)): 47.3%
CC(=O)Cc1nsc(NC(=O)c2cc(-c3cccc(C(F)(F)F)c3)oc2C)n1,0.15,
Cc1oc(-c2cccc(C(F)(F)F)c2Cl)cc1C(=O)Nc1nc(CN2CCOCC2)ns1,0.86,
Cc1oc(-c2cccc(C(F)(F)F)c2)cc1C(=O)Nc1nc(CC(C)N2CCN(C)CC2)ns1 (centres undefined),0.036,
Cc1oc(-c2cccc(C(F)(F)F)c2)cc1C(=O)Nc1nc(CN2CCCCC2)ns1,0.024,inhibition at 10 µM (hERG (KCNH2)): 95.5%
Cc1oc(-c2cccc(C(F)(F)F)c2)cc1C(=O)Nc1nc(CN2CCN(C)CC2)ns1,0.074,
Cc1oc(-c2cc(C(F)(F)F)ccc2F)cc1C(=O)Nc1nc(CN2CCOCC2)ns1,0.018,inhibition at 10 µM (hERG (KCNH2)): 21%; IC50 (LNCaP [2]): 2.75 µM
Cc1oc(-c2cccc(C(F)(F)F)c2)cc1C(=O)Nc1nccs1,0.45,
Cc1oc(-c2cccc(C(F)(F)F)c2)cc1C(=O)Nc1nc(CN2CCC(C(C)(C)O)CC2)ns1,0.27,
Cc1oc(-c2cc(C(F)(F)F)ccc2Cl)cc1C(=O)Nc1nc(CN2CCOCC2)ns1,0.029,inhibition at 10 µM (hERG (KCNH2)): 8%; IC50 (LNCaP [2]): 3.27 µM

Compound,IC50 (Androgen receptor) [µM],further results
Cc1oc(-c2cccc(C#N)c2)cc1C(=O)Nc1nc(CN2CCOCC2)ns1,0.016,inhibition at 10 µM (hERG (KCNH2)): 47.8%
Cc1oc(-c2cccc(C(F)(F)F)c2)cc1C(=O)Nc1ncns1,0.18,
Cc1oc(-c2cccc(C(F)(F)F)c2)cc1C(=O)Nc1nc(CC(C)N2CCOCC2)ns1 (centres undefined),0.032,
CC(=O)Cc1nsc(NC(=O)c2cc(-c3cccc(C(F)(F)F)c3)oc2C(F)(F)F)n1,8.4,
CC(=O)Cc1nsc(NC(=O)c2cc(-c3cccc(C(F)(F)F)c3)sc2C)n1,9.2,
Cc1oc(-c2cccc(OC(F)F)c2)cc1C(=O)Nc1nc(CN2CCOCC2)ns1,0.016,inhibition at 10 µM (hERG (KCNH2)): 68.3%
CC(=O)Cc1ccc(NC(=O)c2cc(-c3cccc(C(F)(F)F)c3)oc2C)cc1,50,
Cc1oc(-c2cccc(C(F)(F)F)c2)cc1C(=O)Nc1nc(CC(C)O)ns1 (centres undefined),0.029,
Cc1oc(-c2cc(Cl)cc(C(F)(F)F)c2)cc1C(=O)Nc1nc(CN2CCOCC2)ns1,0.26,
Cc1oc(-c2cccc(C(F)(F)F)c2F)cc1C(=O)Nc1nc(CN2CCOCC2)ns1,0.2,
Cc1oc(-c2cccc(C(F)(F)F)c2)cc1C(=O)Nc1nc(CN2CCC(O)CC2)ns1,0.14,
CC(Cc1nsc(NC(=O)c2cc(-c3cccc(C(F)(F)F)c3)oc2C)n1)=C(F)F,0.28,
Cc1oc(-c2cccc(C(F)(F)F)c2)cc1C(=O)Nc1nc(CC(C)N2CCCCC2)ns1 (centres undefined),0.45,
Cc1oc(-c2cccc(C(F)(F)F)c2)cc1C(=O)Nc1nc(CN2CCC(O)C2)ns1 (centres undefined),0.47,
CC(O)c1cc(C(=O)N[C@@H](C)Cn2ccc(-c3ccc(C#N)c(Cl)c3)n2)n[nH]1 (some centres undefined) [DAROLUTAMIDE],,IC50 [3]: 0.67 µM
CNC(=O)c1ccc(N2C(=S)N(c3ccc(C#N)c(C(F)(F)F)c3)C(=O)C2(C)C)cc1F [ENZALUTAMIDE],,IC50 (LNCaP [4]): 27.7 µM; inhibition (INH) [5]: Not_active; IC50 (LNCaP [2]): 12.4 µM; IC50 (LNCaP C4-2): 27.7 µM; IC50 (LNCaP C4-2B): 16.3 µM; IC50 [6]: 0.52 µM
COc1cccc(-c2cc(C(=O)Nc3nc(CN4CCOCC4)ns3)c(C)o2)c1,0.022,inhibition at 10 µM (hERG (KCNH2)): 36.9%
CC(=O)Cc1nsc(NC(=O)c2coc(-c3cccc(C(F)(F)F)c3)c2)n1,0.71,
